Reference: ChEMBL document CHEMBL1201862, “PubChem BioAssay data set” (2004)
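How tested: cells in 96-well plates exposed to compound for 48 hours at five concentrations. GI50: concentration for 50% inhibition of growth.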 Active and inactive are the calls of the source. Rule as the data show it: active = GI50 up to about 1.1 µM and inactive = higher.

Legend:
Test in all cases: NCI tumour cell line growth inhibition, 48 h
HCT-116 = test system: HCT-116
OVCAR-3 = test system: OVCAR-3
A549 = test system: A549
DMS-273 = test system: DMS-273
SNB-19 = test system: SNB-19
ACHN = test system: ACHN
EKVX = test system: EKVX
LOX IMVI = test system: LOX IMVI
A498 = test system: A498
HT-29 = test system: HT-29
CCRF-CEM = test system: CCRF-CEM
HOP-92 = test system: HOP-92
OVCAR-4 = test system: OVCAR-4
OVCAR-5 = test system: OVCAR-5
DLD-1 = test system: DLD-1
UO-31 = test system: UO-31
IGROV-1 = test system: IGROV-1
M19-MEL = test system: M19-MEL
M14 = test system: M14
NCI-H460 = test system: NCI-H460
RXF 631 = test system: RXF 631
HCT-15 = test system: HCT-15
K562 = test system: K562
SF-295 = test system: SF-295
OVCAR-8 = test system: OVCAR-8
SK-OV-3 = test system: SK-OV-3
Malme-3M = test system: Malme-3M
SF-539 = test system: SF-539
CAKI-1 = test system: CAKI-1
RXF 393 = test system: RXF 393
NCI-H522 = test system: NCI-H522
UACC-257 = test system: UACC-257
SF-268 = test system: SF-268
HOP-18 = test system: HOP-18
DMS-114 = test system: DMS-114
U-251 = test system: U-251
SN12C = test system: SN12C
XF498 = test system: XF498
SNB-78 = test system: SNB-78
HOP-62 = test system: HOP-62
MOLT-4 = test system: MOLT-4
LXFL 529 = test system: LXFL 529
KM-20L2 = test system: KM-20L2
RPMI-8226 = test system: RPMI-8226
HCC 2998 = test system: HCC 2998
UACC-62 = test system: UACC-62
SK-MEL-28 = test system: SK-MEL-28
NCI-H226 = test system: NCI-H226
786-0 = test system: 786-0
KM12 = test system: KM12
SNB-75 = test system: SNB-75
NCI-H23 = test system: NCI-H23
SW-620 = test system: SW-620
COLO 205 = test system: COLO 205
HL-60 = test system: HL-60
TK-10 = test system: TK-10
SR = test system: SR
SK-MEL-2 = test system: SK-MEL-2
SK-MEL-5 = test system: SK-MEL-5

Measured: GI50

CN(C(=O)c1ccc([N+](=O)[O-])cc1)c1ccccc1
inactive: HCT-116 > 100 µM | OVCAR-3 > 100 µM | A549 > 100 µM | DMS-273 > 100 µM | SNB-19 > 100 µM | ACHN > 100 µM | EKVX > 100 µM | LOX IMVI > 100 µM | A498 > 100 µM | HT-29 > 100 µM | CCRF-CEM > 100 µM | HOP-92 > 100 µM | OVCAR-4 > 100 µM | OVCAR-5 > 100 µM | DLD-1 > 100 µM | UO-31 > 100 µM | IGROV-1 > 100 µM | M19-MEL > 100 µM | M14 > 100 µM | NCI-H460 > 100 µM | RXF 631 > 100 µM | K562 > 10 µM | SF-295 > 100 µM | OVCAR-8 > 100 µM | SK-OV-3 > 100 µM | Malme-3M > 100 µM | SF-539 > 100 µM | CAKI-1 > 100 µM | RXF 393 21.6 µM | NCI-H522 > 100 µM | UACC-257 > 100 µM | SF-268 > 100 µM | HOP-18 > 100 µM | DMS-114 > 10 µM | U-251 > 100 µM | SN12C > 100 µM | XF498 > 100 µM | SNB-78 > 100 µM | HOP-62 > 100 µM | MOLT-4 > 100 µM | LXFL 529 > 100 µM | KM-20L2 > 100 µM | RPMI-8226 > 100 µM | HCC 2998 > 100 µM | UACC-62 > 10 µM | SK-MEL-28 > 100 µM | NCI-H226 > 100 µM | 786-0 > 100 µM | KM12 > 100 µM | SNB-75 87.9 µM | NCI-H23 > 100 µM | SW-620 > 100 µM | COLO 205 > 100 µM
> 100 µM: HCT-15

C/C(=N\NC(N)=S)c1ccc(C)c(C)c1
58.5 µM: HCT-15
inactive: HCT-116 > 100 µM | OVCAR-3 22.8 µM | A549 65.8 µM | DMS-273 > 100 µM | ACHN 59.2 µM | EKVX 3.31 µM | LOX IMVI > 100 µM | A498 66.7 µM | HT-29 19.4 µM | CCRF-CEM 28.1 µM | HL-60 15.1 µM | TK-10 53.5 µM | HOP-92 93.3 µM | OVCAR-4 23.9 µM | OVCAR-5 29.1 µM | DLD-1 30.9 µM | UO-31 52.1 µM | IGROV-1 25.4 µM | M19-MEL 35.7 µM | M14 41.7 µM | NCI-H460 59.3 µM | RXF 631 75.3 µM | K562 36.6 µM | SR 68.9 µM | SF-295 48.8 µM | OVCAR-8 66.2 µM | SK-OV-3 75.7 µM | Malme-3M 33.3 µM | SF-539 19.9 µM | CAKI-1 92.5 µM | SK-MEL-2 45 µM | RXF 393 23 µM | UACC-257 44.2 µM | SF-268 > 100 µM | HOP-18 30.6 µM | DMS-114 16.6 µM | U-251 88.9 µM | SN12C 49.9 µM | XF498 19.4 µM | SK-MEL-5 69.2 µM | SNB-78 > 100 µM | HOP-62 > 100 µM | MOLT-4 15.8 µM | LXFL 529 19.4 µM | KM-20L2 44.7 µM | RPMI-8226 34.5 µM | HCC 2998 51.6 µM | UACC-62 28.4 µM | SK-MEL-28 > 100 µM | NCI-H226 51.2 µM | 786-0 44.6 µM | KM12 44.5 µM | SNB-75 40.3 µM | NCI-H23 85.7 µM | SW-620 52.8 µM | COLO 205 26.9 µM

CCOC(=O)/N=c1/nc(N(C)C)ss1
> 100 µM: HCT-15
inactive: HCT-116 > 100 µM | A549 > 100 µM | DMS-273 > 100 µM | SNB-19 > 100 µM | ACHN > 100 µM | EKVX > 100 µM | A498 > 100 µM | HT-29 > 100 µM | CCRF-CEM > 100 µM | HL-60 > 100 µM | TK-10 > 100 µM | HOP-92 > 100 µM | OVCAR-4 > 100 µM | OVCAR-5 > 100 µM | DLD-1 > 100 µM | UO-31 > 100 µM | IGROV-1 > 100 µM | M14 > 100 µM | NCI-H460 > 100 µM | RXF 631 > 100 µM | K562 > 100 µM | SR > 100 µM | SF-295 > 100 µM | OVCAR-8 > 100 µM | SK-OV-3 > 100 µM | Malme-3M > 100 µM | SF-539 > 100 µM | CAKI-1 > 100 µM | SK-MEL-2 > 100 µM | RXF 393 > 100 µM | NCI-H522 > 100 µM | UACC-257 > 100 µM | SF-268 > 100 µM | HOP-18 > 100 µM | DMS-114 > 100 µM | U-251 > 100 µM | SN12C > 100 µM | XF498 > 100 µM | SK-MEL-5 > 100 µM | SNB-78 > 100 µM | HOP-62 > 100 µM | MOLT-4 > 100 µM | LXFL 529 > 100 µM | KM-20L2 > 100 µM | RPMI-8226 > 100 µM | HCC 2998 > 100 µM | UACC-62 > 100 µM | SK-MEL-28 > 100 µM | NCI-H226 30.3 µM | 786-0 > 100 µM | KM12 > 100 µM | SNB-75 > 100 µM | NCI-H23 > 100 µM | SW-620 > 100 µM
